In US8802664B2 (Bioproject, priority 2010, dated 2014) one finds Ki or IC50 activity class data, which are given here for 42 molecules.

Where only a bound is given, the exact number is not on record here.

The target in this assay is T1, human H4 receptor (Homo sapiens, UniProt Q9H3N8).
T1 construct: expressed in transfected cells
T1 sequence (Q9H3N8 whole entry): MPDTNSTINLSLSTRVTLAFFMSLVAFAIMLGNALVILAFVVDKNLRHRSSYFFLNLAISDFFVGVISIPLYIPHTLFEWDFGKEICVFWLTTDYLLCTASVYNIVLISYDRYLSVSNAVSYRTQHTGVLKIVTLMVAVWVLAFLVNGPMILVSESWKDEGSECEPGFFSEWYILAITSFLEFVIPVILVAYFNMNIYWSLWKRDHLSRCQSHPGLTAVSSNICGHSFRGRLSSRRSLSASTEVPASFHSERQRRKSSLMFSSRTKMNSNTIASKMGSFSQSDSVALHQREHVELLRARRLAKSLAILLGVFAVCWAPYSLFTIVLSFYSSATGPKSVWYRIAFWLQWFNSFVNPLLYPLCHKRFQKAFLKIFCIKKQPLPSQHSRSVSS
Kind of assay: [3H]Histamine binding on membranes of CHO cells stably expressing human H4 receptor. The essentials:
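Nonspecific binding defined with 10 μM JNJ 7777120. Bound radioactivity collected on polyethyleneimine-treated GF/B filters and counted by liquid scintillation.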
Consider `CN1CCC(OC(c2nc3ccccc3[nH]2)c2cccs2)CC1` (stereo not drawn) [Example 546], for which the Ki or IC50 activity class is less than 300 nM. `COc1ccc(C(OC2CCN(C)CC2)c2nc3ccccc3s2)cc1` (stereo not drawn) [Example 14, 2-[(4-methoxyphenyl)(1-methylpiperidin-4-yloxy)methyl]benzothiazole] displayed a Ki or IC50 activity class of less than 1000 nM.

The molecule `CN1CCC(OC(c2cccc(I)c2)c2nc3ccccc3s2)CC1` (stereo not drawn) [Example 41, 2-[(3-iodophenyl)(1-methylpiperidin-4-yloxy)methyl]benzothiazole] returned a Ki or IC50 activity class of less than 30 nM.

In turn, `Cc1ccc(C(OC2CCN(C)CC2)c2nc3ccccc3s2)cc1` (stereo not drawn) [Example 7, 2-[(1-methylpiperidin-4-yloxy)-p-tolylmethyl]benzothiazole] showed a Ki or IC50 activity class of less than 300 nM. With `CN1CCC(OC(c2cccc(SCC3NC(N)=NC3=O)c2)c2nc3ccccc3[nH]2)CC1` (stereo not drawn) [Example 479, 2-amino-5-{3-[(1H-benzimidazol-2-yl)(1-methylpiperidin-4-yloxy)methyl]phenylsulfanylmethyl}-1,5-dihydroimidazol-4-one] the figure was less than 30 nM; with `CN1CCC(NC(c2cccc(OCc3ccccc3F)c2)c2nc3ccccc3[nH]2)CC1` (stereo not drawn) [Example 113, {(1H-benzimidazol-2-yl)[3-(2-fluorobenzyloxy)phenyl]methyl}(1-methylpiperidin-4-yl)amine], less than 30 nM; with `CN1CCC(OC(c2cccc(OCCCCO)c2)c2nc3ccccc3s2)CC1` (stereo not drawn) [Example 266, 4-{3-[benzothiazol-2-yl(1-methylpiperidin-4-yloxy)methyl]phenoxy}butan-1-ol], less than 300 nM.

`CN1CCC(OC(c2cccc(SCCc3cnccn3)c2)c2nc3ccccc3[nH]2)CC1` (stereo not drawn) [Example 232, 2-{(1-methylpiperidin-4-yloxy)[3-(2-pyrazin-2-yl-ethylsulfanyl)phenyl]methyl}-1H-benzimidazole] yielded a Ki or IC50 activity class of less than 1000 nM. `CN1CCC(OC(c2cccc(OC3CCNC3)c2)c2nc3ccccc3s2)CC1` (stereo not drawn) [Example 382, 2-{(1-methylpiperidin-4-yloxy)[3-(pyrrolidin-3-yloxy)phenyl]methyl}benzothiazole]: the Ki or IC50 activity class was less than 30 nM.

Turning to `CN1CCC(OC(c2cccc(-c3cccc(F)c3)c2)c2nc3ccccc3[nH]2)CC1` (stereo not drawn) [Example 109, 2-[(3′-fluoro-biphenyl-3-yl)(1-methylpiperidin-4-yloxy)methyl]-1H-benzimidazole], the Ki or IC50 activity class is less than 300 nM. With `CN1CCC(OC(c2cccc(CCC3CCNCC3)c2)c2nc3ccccc3[nH]2)CC1` (stereo not drawn) [Example 396, 2-{(1-methylpiperidin-4-yloxy)[3-(2-piperidin-4-yl-ethyl)phenyl]methyl}-1H-benzimidazole] the figure was less than 1000 nM; with `CN1CCC(OC(c2cccc(CCCN)c2)c2nc3ccccc3[nH]2)CC1` (stereo not drawn) [Example 303, 3-{3-[(1H-benzimidazol-2-yl)(1-methylpiperidin-4-yloxy)methyl]phenyl}propylamine], less than 300 nM. With `CC(O)CSc1cccc(C(OC2CCN(C)CC2)c2nc3ccccc3s2)c1` (stereo not drawn) [Example 255, 1-{3-[benzothiazol-2-yl(1-methylpiperidin-4-yloxy)methyl]phenylsulfanyl}propan-2-ol] the figure was less than 30 nM.

`COCCOc1cccc(C(OC2CCN(C)CC2)c2nc3ccccc3s2)c1` (stereo not drawn) [Example 277, 2-[[3-(2-methoxyethoxy)phenyl](1-methylpiperidin-4-yloxy)methyl]benzothiazole]: the Ki or IC50 activity class is less than 300 nM.

`CN1CCC(OC(c2cccc(C=CS(C)(=O)=O)c2)c2nc3ccccc3s2)CC1` (stereo not drawn) [Example 212, 2-[[3-(2-methanesulfonylvinyl)phenyl](1-methylpiperidin-4-yloxy)methyl]benzothiazole] displayed a Ki or IC50 activity class of less than 1000 nM. In turn, `COc1cccc(COc2cccc(C(OC3CCN(C)CC3)c3nc4ccccc4s3)c2)c1` (stereo not drawn) [Example 185, 2-[[3-(3-methoxybenzyloxy)phenyl](1-methylpiperidin-4-yloxy)methyl]benzothiazole] yielded a Ki or IC50 activity class of less than 30 nM.

In turn, `CN1CCC(OC(c2cccc(CCCCN)c2)c2nc3ccccc3s2)CC1` (stereo not drawn) [Example 366, 4-{3-[benzothiazol-2-yl(1-methylpiperidin-4-yloxy)methyl]phenyl}butylamine] yielded a Ki or IC50 activity class of less than 30 nM. Consider `CN1CCC(OC(c2ccc(O)cc2)c2nc3ccccc3[nH]2)CC1` (stereo not drawn) [Example 597], for which the Ki or IC50 activity class is less than 1000 nM. With `CN1CCC(OC(c2nc3cccc(F)c3[nH]2)c2cc(OC(F)(F)F)ccc2F)CC1` (stereo not drawn) [Example 529] the figure was less than 300 nM; with `CN1CCC(OC(c2cccc(OCc3cccc(C(F)(F)F)c3)c2)c2nc3ccccc3s2)CC1` (stereo not drawn) [Example 187, 2-{(1-methylpiperidin-4-yloxy)[3-(3-trifluoromethyl-benzyloxy)phenyl]methyl}benzothiazole], less than 30 nM; with `CN1CCC(OC(c2cccc(-c3ccc(Cl)c(Cl)c3)c2)c2nc3ccccc3[nH]2)CC1` (stereo not drawn) [Example 122, 2-[(3′,4′-dichlorobiphenyl-3-yl)(1-methylpiperidin-4-yloxy)methyl]-1H-benzimidazole], less than 300 nM. The figure for `CN1CCC(OC(c2cccc(SCCCCCCNC(=N)N)c2)c2nc3ccccc3[nH]2)CC1` (stereo not drawn) [Example 458] is less than 300 nM; for `CN1CCC(OC(c2cccc(OC(F)(F)F)c2)c2nc3ccccc3[nH]2)CC1` (stereo not drawn) [Example 280, 2-[(1-methylpiperidin-4-yloxy)(3-trifluoromethoxy-phenyl)methyl]-1H-benzimidazole] it is less than 300 nM; for `CN1CCC(OC(c2cccc(OCC3CCNCC3)c2)c2nc3ccccc3s2)CC1` (stereo not drawn) [Example 377, 2-{(1-methylpiperidin-4-yloxy)[3-(piperidin-4-ylmethoxy)phenyl]methyl}benzothiazole] it is less than 300 nM. With `Cc1ccc2sc(C(OC3CCN(C)CC3)c3ccccc3)nc2c1` (stereo not drawn) [Example 29, 5-methyl-2-[(1-methylpiperidin-4-yloxy)phenylmethyl]benzothiazole] the figure was less than 1000 nM; with `CN1CCC(OC(c2cccc(-c3cccc(CO)c3)c2)c2nc3ccccc3s2)CC1` (stereo not drawn) [Example 54], less than 300 nM. `CN1CCC(OC(c2cccc(CCCCO)c2)c2nc3ccccc3s2)CC1` (stereo not drawn) [Example 238, 4-{3-[benzothiazol-2-yl(1-methylpiperidin-4-yloxy)methyl]phenyl}butan-1-ol] displayed a Ki or IC50 activity class of less than 1000 nM. `CCCOc1cccc(C(OC2CCN(C)CC2)c2nc3ccccc3s2)c1` (stereo not drawn) [Example 26, 2-[(1-methylpiperidin-4-yloxy)(3-propoxy-phenyl)methyl]benzothiazole] returned a Ki or IC50 activity class of less than 30 nM. The molecule `CN1CC(COC(c2cccc(SCCCCN)c2)c2nc3ccccc3[nH]2)C1` (stereo not drawn) [Example 507, 4-{3-[(1H-benzimidazol-2-yl)(1-methylazetidin-3-ylmethoxy)methyl]phenylsulfanyl}butylamine] gave a Ki or IC50 activity class of less than 30 nM. The figure for `CN1CCC(OC(c2cccc(OCCN3CCCCC3)c2)c2nc3ccccc3[nH]2)CC1` (stereo not drawn) [Example 356, 2-{(1-methylpiperidin-4-yloxy)[3-(2-piperidin-1-yl-ethoxy)phenyl]methyl}-1H-benzimidazole] is less than 1000 nM. Turning to `CN1CCC(OC(c2cccc(OCCCl)c2)c2nc3ccccc3s2)CC1` (stereo not drawn) [Example 354, 2-[[3-(2-Chloroethoxy)phenyl](1-methylpiperidin-4-yloxy)methyl]benzothiazole], the Ki or IC50 activity class is less than 30 nM. The figure for `CN1CCC(OC(c2cccc(OCCCCN)c2)c2nc3ccccc3s2)CC1` (stereo not drawn) [Example 301, 4-{3-[benzothiazol-2-yl(1-methylpiperidin-4-yloxy)methyl]phenoxy}butylamine] is less than 30 nM. The molecule `CN1CCC(OC(c2cccc(C=CCNC(=N)N)c2)c2nc3ccccc3[nH]2)CC1` (stereo not drawn) [Example 499] had a Ki or IC50 activity class of less than 30 nM. `CN1CCC(OC(c2cccc(SCCCNC(=N)N)c2)c2nc3ccccc3[nH]2)CC1` (stereo not drawn) [Example 441, N-(3-{3-[(1H-benzimidazol-2-yl)(1-methylpiperidin-4-yloxy)methyl]phenylsulfanyl}propyl)guanidine] showed a Ki or IC50 activity class of less than 30 nM. The figure for `CN1CCC(NC(c2cccc(OCCOc3ccccc3)c2)c2nc3ccccc3[nH]2)CC1` (stereo not drawn) [Example 106, {(1H-benzimidazol-2-yl)[3-(2-phenoxyethoxy)phenyl]methyl}(1-methylpiperidin-4-yl)amine] is less than 300 nM; for `CN1CCC(OC(c2ccc3c(c2)OCO3)c2nc3ccccc3[nH]2)CC1` (stereo not drawn) [Example 297, 2-[benzo[1,3]dioxol-5-yl(1-methylpiperidin-4-yloxy)methyl]-1H-benzimidazole] it is less than 300 nM. Take `CN1CCC(OC(c2cccc(SCC(N)=O)c2)c2nc3ccccc3s2)CC1` (stereo not drawn) [Example 263, 2-{3-[benzothiazol-2-yl(1-methylpiperidin-4-yloxy)methyl]phenylsulfanyl}acetamide]: the Ki or IC50 activity class was less than 1000 nM. With `CN1CCC(OC(c2cccc(C=CCCCN)c2)c2nc3ccccc3[nH]2)CC1` (stereo not drawn) [Example 421, 5-{3-[(1H-benzimidazol-2-yl)(1-methylpiperidin-4-yloxy)methyl]phenyl}pent-4-enylamine] the figure was less than 30 nM; with `CN1CCC(OC(c2cccc(C(F)(F)F)c2)c2nc3ccccc3s2)CC1` (stereo not drawn) [Example 31, 2-[(1-methylpiperidin-4-yloxy)(3-trifluoromethylphenyl)methyl]benzothiazole], less than 30 nM; with `COc1cc(F)cc(C(NC2CCN(C)CC2)c2nc3ccccc3s2)c1` (stereo not drawn) [Example 43, [benzothiazol-2-yl(3-fluoro-5-methoxyphenyl)methyl](1-methylpiperidin-4-yl)amine], less than 300 nM. With `CN1CCC(OC(c2cccc(SCCCCN)c2)c2nc3cc(F)ccc3[nH]2)CC1` (stereo not drawn) [Example 440, 4-{3-[(5-fluoro-1H-benzimidazol-2-yl)(1-methylpiperidin-4-yloxy)methyl]phenylsulfanyl}butylamine] the figure was less than 30 nM.

On to `CN1CCC(OC(c2nc3ccccc3[nH]2)c2cc(Cl)ccc2F)CC1` (stereo not drawn) [Example 496], for which the Ki or IC50 activity class was less than 300 nM.
